This is an account of results in ChEMBL document CHEMBL3507680, “University of Dundee, Gates Library screen for HepG2 cell viability”.

The nature of the series: Human HepG2 cell viability assay in 384 well format. It counts as toxicity, cell-based. As to conditions: HepG2 cells, read-out: Inhibition. Also on record: dose 125 nL, time 70.5 hour; cytotoxicity at 70.5 h: concentration not given beside the values.
With `CN1CC2(CCN(C(=O)CCc3nc4cccnc4n3C)C2)OC1=O` (stereo not drawn), the cytotoxicity at 70.5 h was found to be 15.3%.

With `Fc1ccc(C2(CNC3=NCCN3)CCCC2)cc1`, the cytotoxicity at 70.5 h was found to be 3.33%.

For the compound `CN1C(=O)CC(C(=O)O)C12CCN(Cc1ccc(F)cc1Cl)CC2` (stereo not drawn), the cytotoxicity at 70.5 h is -9.57%.

With `C=C1C(C)(C)[C@H]2CC[C@]1(C(=O)N1CCC(n3cc(CO)nn3)CC1)C2`, the cytotoxicity at 70.5 h is -7.81%.

As to `Cc1ccc(NCCNC(=O)C2Cc3cc(C)c(C)cc3O2)nn1` (stereo not drawn), the cytotoxicity at 70.5 h is -2.18%.

For the compound `O=C(c1nc2c(s1)CCCN2CC1CC1)N1CCOCC1`, the cytotoxicity at 70.5 h was 4.5%.

Consider `CCc1csc(C2CCCN(C(=O)COc3cc(C)on3)C2)n1` (stereo not drawn), for which the cytotoxicity at 70.5 h was -8.8%.

On to `CC(=O)N[C@@H](CC(C)C)C(=O)N1CCC(n2cc(CO)nn2)CC1`, for which the cytotoxicity at 70.5 h is -4.38%.

As for `Cc1ccc(NC(=O)N(C)C)c(C(=O)OCC(=O)NC(C)C(C)C)c1` (stereo not drawn), the cytotoxicity at 70.5 h was 26.9%.

In the case of `Cc1ccc(N2CCCN(C(=O)C(C)OCC3CC3)CC2)nn1` (stereo not drawn), the cytotoxicity at 70.5 h was -11.3%.

Turning to `Cc1cccn2cc(C(=O)N3CCCN(CC4CC4)C(C(C)C)C3)nc12` (stereo not drawn), the cytotoxicity at 70.5 h is -8.2%.

As for `CC1(C2CCN(CC(N)=O)CC2)CN(Cc2ccccc2)C(=O)O1` (stereo not drawn), the cytotoxicity at 70.5 h is -5.3%.

Regarding `CC(Cn1ccnc1)NC(=O)NCCN1CCc2ccccc2C1` (stereo not drawn), the cytotoxicity at 70.5 h was 0.814%.

As to `CCc1cnc(COc2ccc(OC3CCCCNC3=O)cc2)o1` (stereo not drawn), the cytotoxicity at 70.5 h was -4.27%.

As for `Cc1nn(C2CCCC2)c2nc(C(C)(C)CN3CCN(C)CC3)[nH]c12`, the cytotoxicity at 70.5 h was -2.47%.

Take `CCNC(=O)CCC(=O)NC(C)Cc1ccccc1Br` (stereo not drawn): the cytotoxicity at 70.5 h worked out at 4.19%.

For the compound `Cc1ccc(Cn2ccc(NS(C)(=O)=O)n2)cc1`, the cytotoxicity at 70.5 h is -10.8%.

Consider `CC(=O)NCCNC(=O)NCC1Cc2ccccc2O1` (stereo not drawn), for which the cytotoxicity at 70.5 h was -4.29%.

For `CCC(=O)N1CCC2(C=C(C(=O)N(C)C)c3ccccc32)CC1`, the cytotoxicity at 70.5 h was found to be 14%.

In the case of `CC(C)c1nc(C2CCCN(C(=O)CN3CCN(C)CC3)C2)no1` (stereo not drawn), the cytotoxicity at 70.5 h is -7.22%.

Regarding `CN1CCC(N2CCC(CN(Cc3ccncc3)C3CCC3)CC2)CC1`, the cytotoxicity at 70.5 h was -4.29%.

Consider `Cn1cc(C2(C)CN(C(=O)COc3ccccc3F)CCO2)cn1` (stereo not drawn), for which the cytotoxicity at 70.5 h is -4.09%.

As for `O=c1[nH]ncn1-c1cccc(C(F)(F)F)c1`, the cytotoxicity at 70.5 h worked out at 1.41%.

As for `Cc1ccc(C)c(NC(=O)c2n[nH]c(-n3cnnc3)n2)c1`, the cytotoxicity at 70.5 h is -0.779%.

In the case of `CCN1CCOC(CNCc2ccccc2OCC(=O)N(C)C)C1` (stereo not drawn), the cytotoxicity at 70.5 h is -4.93%.

`CCc1noc(C(C)N2CCCN(Cc3noc(C4CC4)n3)CC2)n1` (stereo not drawn): the cytotoxicity at 70.5 h was -13.5%.

For the compound `Cc1cnc(C(=O)N2CCC3(CC2)CN(c2ccccn2)CCO3)cn1`, the cytotoxicity at 70.5 h was -6.44%.

Turning to `CN(C)c1cc2c(nn1)CCN(C(=O)c1cc3c(s1)CCCC3)C2`, the cytotoxicity at 70.5 h came to 13.1%.

Regarding `CCOc1ncccc1C(=O)N1CCCC1c1c(C)nn(C)c1Cl` (stereo not drawn), the cytotoxicity at 70.5 h turned out to be 11.9%.

For `CC(Cc1cccnc1)Nc1ncnc2cccc(F)c12` (stereo not drawn), the cytotoxicity at 70.5 h worked out at 1.44%.

As to `CCC(CO)N(Cc1cccnc1)C(=O)c1ccc(C)[nH]c1=O` (stereo not drawn), the cytotoxicity at 70.5 h is -7.73%.

Consider `Cc1ccc(CN2CCN(C(=O)c3ccccc3O)C(C)C2=O)cc1` (stereo not drawn), for which the cytotoxicity at 70.5 h is -18.7%.

For the compound `O=C(Cn1nc2c(cc1=O)CCCC2)N[C@@H](Cc1ccccc1)C(=O)O`, the cytotoxicity at 70.5 h was 6.84%.

Turning to `Cc1cc(C)nc(NCCC(=O)NCCn2ccc3ccccc32)n1`, the cytotoxicity at 70.5 h was 5.63%.

Regarding `CC(C)(C)c1nc(CN2CCC(N3CCCCC3)CC2)no1`, the cytotoxicity at 70.5 h is -2.12%.

For `c1cnnc(N2CCCC2CNCc2cccs2)c1` (stereo not drawn), the cytotoxicity at 70.5 h was -1.72%.

For the compound `Cc1cnn(CC2CCCCN2CC(=O)Nc2nc(C)cs2)c1` (stereo not drawn), the cytotoxicity at 70.5 h was -2.94%.

Take `CS(=O)(=O)c1ncc(CN2CCN3CCCC3C2)n1CC1CCCCC1` (stereo not drawn): the cytotoxicity at 70.5 h was -6.4%.

For `CS(=O)(=O)CCC(=O)N1CCC(c2ccc(F)c(F)c2)CC1`, the cytotoxicity at 70.5 h was 2.26%.

On to `Cc1nccn1-c1nccnc1C1CCCN(C)C1` (stereo not drawn), for which the cytotoxicity at 70.5 h is -4.67%.

As to `Cc1nc(Nc2nccs2)cc(C2CCCN2C2CCOCC2)n1` (stereo not drawn), the cytotoxicity at 70.5 h is -8.39%.

On to `CCC1CN(C(=O)c2cc(C(C)=O)c(C)[nH]c2=O)CCN1C(C)C` (stereo not drawn), for which the cytotoxicity at 70.5 h was -9.37%.

For `Cc1noc(C2CCCCN2C(=O)NC2CCCC2)n1` (stereo not drawn), the cytotoxicity at 70.5 h was -7.87%.

Turning to `CC(C)CC1CC(=O)Nc2c1cnn2Cc1ccco1` (stereo not drawn), the cytotoxicity at 70.5 h was -22.8%.

As for `Cc1cc(CNc2ccc(C(=O)N3CCc4ccccc43)cn2)on1`, the cytotoxicity at 70.5 h is -1.24%.

`Cc1cc(C)n(CCCN(C)C(=O)CN2CC3(CCNCC3)OC2=O)n1`: the cytotoxicity at 70.5 h is -8.19%.

Regarding `COC[C@@H]1CC[C@H]2[C@H](CCN2S(=O)(=O)c2ccc(C)cc2)O1`, the cytotoxicity at 70.5 h was -4.48%.

`O=C(c1ccc(-c2ccc(O)nc2)s1)N1CCSCC1`: the cytotoxicity at 70.5 h is -14%.

Turning to `Cc1nnc2n1CCN(CCOc1ccccc1C#N)C2`, the cytotoxicity at 70.5 h is 11.3%.

Take `CCC(CO)N(Cc1cccnc1)C(=O)c1ccc(C(F)(F)F)nc1O` (stereo not drawn): the cytotoxicity at 70.5 h was -18.7%.

Consider `CCCc1ccc2oc(C(=O)N3CCC(O)CC3)c(C)c2c1`, for which the cytotoxicity at 70.5 h stood at 6.68%.

With `O=C1CCC2(CCCN(c3ncc(F)cn3)CC2)N1Cc1ccccc1` (stereo not drawn), the cytotoxicity at 70.5 h is 1.63%.

Take `Fc1ccc(-c2c[nH]c([C@@H]3COCCN3)n2)cc1`: the cytotoxicity at 70.5 h was -9.31%.

For the compound `Cc1c(CNC(=O)c2cn(CCC3CCCCN3)nn2)cnn1C` (stereo not drawn), the cytotoxicity at 70.5 h was -1.47%.

Consider `Cc1cnn(C2CCCN(C(=O)c3ccc(N(C)C)nn3)C2)c1` (stereo not drawn), for which the cytotoxicity at 70.5 h was -10.7%.

In the case of `Cc1cc(CN2CCN(CC3CC3)[C@@H]3CS(=O)(=O)C[C@@H]32)ccc1F`, the cytotoxicity at 70.5 h stood at 6.58%.

As to `Clc1ccc(C2(CNC3=NCCN3)CC2)cc1`, the cytotoxicity at 70.5 h was 10%.

For the compound `Cc1ccc2c(c1)c(CNC(C)Cn1ccnc1)nn2C` (stereo not drawn), the cytotoxicity at 70.5 h was -5.3%.

For `CCOC(C)c1nc(CN2CCN(Cc3cccnc3)CC2)cs1` (stereo not drawn), the cytotoxicity at 70.5 h is -4.18%.

As for `CC(=O)N1CC[C@H]2OCC[C@@H](C(=O)Nc3cccnc3C)[C@@H]2C1`, the cytotoxicity at 70.5 h was -5.24%.

As to `CCc1ncc2c(n1)CN(CC(=O)Nc1nnc(C)s1)CC2`, the cytotoxicity at 70.5 h is -3.21%.

In the case of `N#Cc1ccnc(N2CCN(CC(O)c3ccccc3Cl)CC2)c1` (stereo not drawn), the cytotoxicity at 70.5 h is -0.0236%.

Regarding `Cc1ccc(C(=O)N2CC[C@@H]3CN(C4CCOCC4)CCO[C@@H]3C2)o1`, the cytotoxicity at 70.5 h is -7.78%.

As to `CC(Cc1ccc(Cl)cc1)N(C)C(=O)NCCS(C)(=O)=O` (stereo not drawn), the cytotoxicity at 70.5 h is 18.5%.

For `COc1ccc(C(C(=O)O)N2CCC(Cn3cccn3)CC2)c(OC)n1` (stereo not drawn), the cytotoxicity at 70.5 h is 15.1%.

On to `O=C(Cc1n[nH]c(-c2cncc(Br)c2)n1)NCc1ccccn1`, for which the cytotoxicity at 70.5 h is -8.81%.

As to `COc1ccc2c(c1)CC(C(=O)N(C)Cc1noc3c1CCCC3)CO2` (stereo not drawn), the cytotoxicity at 70.5 h is -4.86%.

Consider `CC(Cn1ccnc1)NC(=O)NCCc1ccccn1` (stereo not drawn), for which the cytotoxicity at 70.5 h is -0.19%.

As for `O=C([C@H]1CCCO1)N1CCC2(CC1)C(=O)N(CC1CC1)c1ccccc12`, the cytotoxicity at 70.5 h is -1.06%.

Regarding `O=C(O)CSc1nc(-c2ccc3c(c2)CCC3)n[nH]1`, the cytotoxicity at 70.5 h is 2.18%.

As to `Cn1cc(-c2cnc3n2CCC32CCN(S(C)(=O)=O)CC2)cn1`, the cytotoxicity at 70.5 h was -0.823%.

In the case of `CCCc1cc(N2CCC(NC3CCOCC3)CC2)nc(C)n1`, the cytotoxicity at 70.5 h is 22.8%.

Consider `CC(=O)N1CCN(C(=O)NCCc2ccc(Cl)s2)CC1`, for which the cytotoxicity at 70.5 h is -4.33%.

Consider `Cc1nccn1CCC1CCCCN1Cc1ccncc1` (stereo not drawn), for which the cytotoxicity at 70.5 h stood at 3.75%.

For the compound `CC(C)(C)CC(=O)NCC(=O)NCC(O)c1ccc2ccccc2c1` (stereo not drawn), the cytotoxicity at 70.5 h came out at 4.11%.

In the case of `CC(C)c1ncc(CN2CCC(O)(c3ccccc3F)CC2)cn1`, the cytotoxicity at 70.5 h was 2.86%.

For the compound `NC(c1ccccc1)c1ccc(OC(F)F)cc1` (stereo not drawn), the cytotoxicity at 70.5 h is 6.42%.

As for `CCc1nc(CC(=O)N2CCn3c(C)nnc3C2)cs1`, the cytotoxicity at 70.5 h was -6.05%.

In the case of `Cc1cnn(CCNCC(O)COc2c(Cl)cccc2Cl)c1` (stereo not drawn), the cytotoxicity at 70.5 h was -4.22%.

In the case of `Cc1ccc(-c2noc(CN3CCOC(Cn4cncn4)C3)n2)cc1` (stereo not drawn), the cytotoxicity at 70.5 h is -7.15%.

For the compound `CCc1csc(C2CCCN(C(=O)c3ccc4c(c3)OCO4)C2)n1` (stereo not drawn), the cytotoxicity at 70.5 h came to 13.2%.

As for `O=C(c1cscn1)N1CCC(Cn2cc(-c3ccsc3)nn2)CC1`, the cytotoxicity at 70.5 h is -8.02%.

As to `CN(C)C(=O)CN1CCN(c2ccnc3c(F)ccc(F)c23)CC1`, the cytotoxicity at 70.5 h was -4.33%.

`COc1cc(CNC(=O)N2CCCC2c2cc(C)no2)ccn1` (stereo not drawn): the cytotoxicity at 70.5 h is -15.1%.

As to `O=C(CNc1cc2c(cc1Br)OCCO2)NC1CCS(=O)(=O)C1` (stereo not drawn), the cytotoxicity at 70.5 h was -2.07%.

As to `CC(C)c1cc(NCC(O)c2ccccn2)n2nccc2n1` (stereo not drawn), the cytotoxicity at 70.5 h was -8.96%.

As to `CC1CC2(CCN(C(=O)c3c[nH]cn3)CC2)c2ccccc21` (stereo not drawn), the cytotoxicity at 70.5 h is -8.21%.

Consider `O=S(=O)(C1CC1)N1CCO[C@H]2[C@H](Oc3cccnc3)CC[C@@H]21`, for which the cytotoxicity at 70.5 h was -4.91%.

As to `Cc1ncsc1CCC(=O)NCc1cc2n(n1)CCN(C(=O)N(C)C)C2`, the cytotoxicity at 70.5 h is 13.9%.

Regarding `COCC(NC(=O)c1ccc[nH]1)c1cccc(C(F)(F)F)c1` (stereo not drawn), the cytotoxicity at 70.5 h is 17.9%.

Consider `NC(=O)c1ccc(NC(=O)c2ccncc2F)cn1`, for which the cytotoxicity at 70.5 h is 10.3%.

For `O=C1[C@H]2CC[C@H](CN(c3ncnc4ccsc34)C2)N1CC1CC1`, the cytotoxicity at 70.5 h is -11%.

`CC(=O)N1CCC(C(=O)NC2CC(C)(C)Oc3cc(C)ccc32)CC1` (stereo not drawn): the cytotoxicity at 70.5 h is 12.8%.

Take `CNC(=O)[C@H]1C[C@@H]2CN(S(=O)(=O)c3ccc(OC)cc3)C[C@@H]2N1C`: the cytotoxicity at 70.5 h is -1.32%.

As for `O=C(NCC1CCOC1)c1csc(-c2cccc(Cl)c2)n1` (stereo not drawn), the cytotoxicity at 70.5 h came out at 1.75%.

Take `CN(C)C(=O)NC[C@H]1OC[C@@H]2CCN(Cc3ccoc3)C[C@@H]21`: the cytotoxicity at 70.5 h was determined as 52.3%.

As to `CC(c1nc(C(C)(C)C)no1)N1CCN(Cc2ccc(C#N)cc2)CC1` (stereo not drawn), the cytotoxicity at 70.5 h is -1.19%.

Turning to `Cn1cnnc1C1CCCN(C(=O)c2ccccc2Cl)C1` (stereo not drawn), the cytotoxicity at 70.5 h was -4.06%.
